Drawing on ChEMBL document CHEMBL5344416, “Phenothiazines as anti-cancer agents: SAR overview and synthetic strategies” (Eur J Med Chem, 2023), this text covers IC50 for one compound.

Format in all cases: functional, cell-based
For one assay, the system named is SNB-19. Nature of the assay: Anticancer activity against human SNB-19 cells assessed as reduction in cell proliferation incubated for 72 hrs by WST-1 assay. Conditions: SNB-19, 72 h. In general terms: Tetrazolium dyes change colour on reduction, which living cells bring about.
Another assay has as its system Caco-2. Nature of the assay: Cytotoxicity against human Caco-2 cells assessed as reduction in cell proliferation incubated for 72 hrs by WST-1 assay. The note with it: Caco-2, 72 h.
In another assay the test system is A549. Nature of the assay: Antiproliferative activity against human A549 cells assessed as reduction in cell viability incubated for 72 hrs by WST-1 assay. Conditions: A549, 72 h.
The subject of a further assay is MDA-MB-231. The experiment in a line: Antiproliferative activity against human MDA-MB-231 cells assessed as reduction in cell viability incubated for 72 hrs by WST-1 assay. Conditions: MDA-MB-231, 72 h.
A further assay deals with NHDF. The experiment in a line: Cytotoxicity against human NHDF cells assessed as reduction in cell viability incubated for 72 hrs by WST-1 assay.

pIC50: −log10 of the molar value. Where only a bound is given, the exact number is not on record here.

For the compound `Clc1ccc(Cn2cc(CN3c4cccnc4Sc4cccnc43)nn2)cc1`, the pIC50 (as a rule, −log10 of the IC50, conventionally taken in molar units) in the assay on SNB-19 was 5.33; in the assay with Caco-2, 6.60; with A549, 6.60; in the assay with MDA-MB-231, 6.29; in the assay on NHDF, less than 4.00.
